In US8809344B2, “Compounds, compositions, and methods for control of hepatitis C viral infections” (priority 2008, dated 2014):
Like-named read-outs stand apart in the source and are kept apart here.

How the values were obtained:
[1] = system: genotype 2a replicon encoding genotype 1b NS4B amino acids 53-254; assay: Chimeric genotype 1b/2a replicon (NS4B aa 53-254 from 1b) in Huh7.5 cells; format: cell-based, hepatitis C virus
From the text: That NS4B is the target of 80978 was confirmed by a complementary approach. The differential response to 80978 by HCV genotype 1b and 2a replicons allowed the use of chimeric replicons to narrow down the region of the HCV genotype 1b NS4B coding region that confers sensitivity to 80978. The nucleotide sequence of the wild type HCV genotype 2a NS4B is provided as SEQ ID NO: 7 and the wild type HCV genotype 2a NS4B protein sequence is provided as SEQ ID NO:8. Using a plasmid containing an 80978-resistant stable HCV genotype 2a subgenomic reporter replicon cDNA, six replacement, or chimeric constructs were made, where the regions encoding the following amino acids of NS4B were replaced with the regions encoding the corresponding amino acids of NS4B from HCV genotype 1b: (i) 7-254, (ii) 7-52, (iii) 53-254, (iv) 219-254, (v) 7-52 and 219-254, and (vi) 53 to 218. The full-length NS4B protein is 261 amino acids in length and is provided as SEQ ID NO:2. Thus, if any of these segments of NS4B from genotype 1b are sufficient to confer 80978-sensitivity to a genotype 2a HCV replicon, it will render the chimeric genotype 1b/genotype 2a replicon sensitive to the compound.
Response to 80978 was measured initially in unselected cells. […] All of the chimeric and wild type control constructs were responsive to Cyclosporin A (CsA).

[2] = system: replicon RNA from 80978-resistant and control Clone A cells in Huh7b cells; assay: Sensitivity of Huh7b cells electroporated with total RNA from resistant or control Clone A cells; format: cell-based, hepatitis C virus
From the text: To determine whether resistance was replicon-associated, total RNA was extracted from 80978-resistant and control cells and re-introduced via electroporation into naïve Huh7b cells, the parental cell line of Clone A cells. Electroporated cells that harbored replicon were selected with Geneticin™, pooled, and assayed for sensitivity to 80978.

[3] = system: stable genotype 1b (Con1 strain) subgenomic replicon; assay: EC50 in Clone VI cells, quantitative RT-PCR of HCV RNA; format: cell-based; settings: Hepatitis C virus, 72 hour
Method: (§1) Inhibition of HCV replication by compound AP0080978 (enantiomer 2 from Example 1) was also assayed by exposing cells harboring either HCV genotype 1a, HCV genotype 1b, HCV genotype 2a replicons. […] Final DMSO percentage was 1% in a total volume of 1 ml. After a 72 hour treatment period, total RNA was extracted, quantified via RiboGreen™ assay (Invitrogen-Molecular Probes, Eugene, Oreg., USA), and equivalent amounts of RNA were subjected to quantitative RT-PCR to quantify HCV RNA levels. […] For each replicate culture, HCV RNA levels were measured by blot hybridization and normalized to β-actin RNA levels. Cytotoxicity was measured using an established neutral red dye uptake assay (Korba and Gerin (1992) Antiviral Res 19:55; Okuse et al (2005) Antiviral Res 65: 23). […] Activity and toxicity against genotype 2a was evaluated in Huh7 cells harboring a stable hRluc-containing subgenomic genotype 2a replicon containing sequence from both J6 and JFH1 strains. […]
(§2) Additional compounds of formula (I) shown in FIG. 1 were also shown to inhibit HCV RNA replication. The effects of various compounds of formula (I) on HCV RNA replicon levels were determined by measuring HCV replicon RNA levels in cells treated with various concentrations of the compounds. […] Total RNA was extracted 72 hours later, and HCV and GAPDH RNA levels were quantified via quantitative RT-PCR. […]

[4] = Cell viability (CC50) in the Clone VI RT-PCR experiment; format: cell-based; settings: human, Experiment 1, genotype 1b
Method: as §1, §2

Compound: O=C(NCc1cccs1)c1nn2c(c1Cl)N[C@H](c1ccco1)C[C@@H]2C(F)(F)F (single isomer, unassigned) [Compound 80978]
- response to 80978 ([1]; Geneticin-selected stable replicon-containing cells, amino acids 53-254): responsive
- EC50 ([1]; Hepatitis C virus, Huh7.5): < 2500 nM
- sensitivity to 80978 ([2]; Huh7b cells electroporated with total RNA from 80978-resistant cells): maintained resistance
- sensitivity to 80978 ([2]; Huh7b cells electroporated with total RNA from control cells): sensitive
- EC50 ([3]; FIG. 2, compounds other than 80978 as racemates, read-out: EC50 for inhibition of HCV RNA replication): 900 nM
- EC50 ([3]; Experiment 1, genotype 1b, RT-PCR, read-out: EC50): 900 to 1750 nM
- CC50 at 72 h [4]: > 100000 nM
